Source: BindingDB's records for doi:10.1146/annurev.pa.30.040190.003221 (National Institute For Medical Research, 1990)
pKi: −log10 of the molar value.

Tests used:
[1] = biological target: T1, Muscarinic acetylcholine receptor M1 (Rattus norvegicus, UniProt P08482)
T1 sequence (P08482 whole entry): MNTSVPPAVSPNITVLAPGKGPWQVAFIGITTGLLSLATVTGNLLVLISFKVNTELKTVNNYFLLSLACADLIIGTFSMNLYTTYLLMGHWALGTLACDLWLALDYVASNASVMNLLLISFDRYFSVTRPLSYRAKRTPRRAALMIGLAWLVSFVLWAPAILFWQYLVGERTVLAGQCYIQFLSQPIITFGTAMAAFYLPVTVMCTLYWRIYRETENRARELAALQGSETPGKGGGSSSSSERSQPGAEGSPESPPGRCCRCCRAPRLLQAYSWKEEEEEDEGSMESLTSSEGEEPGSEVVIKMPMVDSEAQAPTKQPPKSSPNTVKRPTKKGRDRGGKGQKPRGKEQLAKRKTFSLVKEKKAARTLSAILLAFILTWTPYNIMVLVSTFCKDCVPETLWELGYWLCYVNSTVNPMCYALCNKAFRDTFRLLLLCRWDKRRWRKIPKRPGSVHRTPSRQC

[2] = biological target: Muscarinic acetylcholine receptor M3 (Rattus norvegicus, UniProt P08483)
[3] = biological target: T2, Muscarinic acetylcholine receptor M2 (Rattus norvegicus, UniProt P10980)
T2 sequence (P10980 whole entry): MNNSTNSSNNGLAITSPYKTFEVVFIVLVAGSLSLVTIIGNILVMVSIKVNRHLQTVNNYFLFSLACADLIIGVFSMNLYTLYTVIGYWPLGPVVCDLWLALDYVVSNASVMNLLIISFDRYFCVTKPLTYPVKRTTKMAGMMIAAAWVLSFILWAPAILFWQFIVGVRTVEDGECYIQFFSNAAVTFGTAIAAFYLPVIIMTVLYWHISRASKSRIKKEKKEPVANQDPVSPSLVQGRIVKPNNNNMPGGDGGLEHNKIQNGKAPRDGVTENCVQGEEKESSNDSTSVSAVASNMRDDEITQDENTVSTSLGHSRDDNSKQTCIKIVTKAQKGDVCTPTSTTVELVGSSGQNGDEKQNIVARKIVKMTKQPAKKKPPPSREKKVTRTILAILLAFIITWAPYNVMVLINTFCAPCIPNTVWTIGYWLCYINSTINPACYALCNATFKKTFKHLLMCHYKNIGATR

Sequence of Muscarinic acetylcholine receptor M3 (P08483 whole entry): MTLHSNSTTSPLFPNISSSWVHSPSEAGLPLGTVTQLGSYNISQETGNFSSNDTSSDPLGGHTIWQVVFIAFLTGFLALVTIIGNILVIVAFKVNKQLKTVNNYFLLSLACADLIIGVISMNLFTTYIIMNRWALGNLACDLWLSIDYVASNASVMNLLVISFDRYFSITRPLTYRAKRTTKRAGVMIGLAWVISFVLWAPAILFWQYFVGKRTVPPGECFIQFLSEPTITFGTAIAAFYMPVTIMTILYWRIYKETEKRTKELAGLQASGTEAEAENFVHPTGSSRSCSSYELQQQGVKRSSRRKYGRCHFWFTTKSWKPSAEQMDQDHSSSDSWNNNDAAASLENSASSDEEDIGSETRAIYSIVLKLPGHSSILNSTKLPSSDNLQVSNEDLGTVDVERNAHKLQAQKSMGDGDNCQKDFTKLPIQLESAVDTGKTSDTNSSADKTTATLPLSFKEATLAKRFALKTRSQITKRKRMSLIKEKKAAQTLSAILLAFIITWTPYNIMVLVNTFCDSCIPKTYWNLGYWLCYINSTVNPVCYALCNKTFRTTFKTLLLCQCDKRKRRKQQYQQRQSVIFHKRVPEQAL

pKi [1] | pKi [2] | SMILES | pKi [3]
6.40 | 5.90 | CCN(CC)CC1CCCCN1CC(=O)N1c2ccccc2C(=O)Nc2cccnc21 (centres undefined) [(AF-DX 116) 11-[2-(2-Diethylaminomethyl-piperidin-1-yl)-acetyl]-5,11-dihydro-benzo[e]pyrido[3,2-b][1,4]diazepin-6-one] | –
7.90 | 8.20 | CC(=O)N[C@H]1CO[C@H](COS(=O)(=O)O)[C@@H](O[C@@H]2O[C@H](C(=O)O)[C@@H](O[C@H]3O[C@H](CO)[C@@H](O[C@@H]4O[C@@H](C(=O)O)[C@@H](O)[C@H](O)[C@H]4OS(=O)(=O)O)[C@H](OS(=O)(=O)O)[C@H]3NS(=O)(=O)O)[C@H](O)[C@H]2OS(=O)(=O)O)[C@@H]1O [CAS_9050-30-0] | 6.90
– | 6.50 | COc1ccccc1CNCCCCCCNCCCCCCCCNCCCCCCNCc1ccccc1OC [METHOCTRAMINE] | –

SMILES | pKi [1] | pKi [2] | pKi [3]
C[C@H]1OC(=O)C2C[C@H]3CCCC[C@@H]3[C@@H](/C=C/[C@@H]3CCC[C@H](C)N3C)C21 (some centres undefined) [HIMBACINE] | 7.00 | 6.90 | 8.10
